According to US9382216B2, “Substituted morpholines as modulators for the calcium sensing receptor” (LUPIN LIMITED, priority 2011, dated 2016):
pEC50: −log10 of the molar value. Structures can show the parent of a compound that is named as a salt.

Biological target: T1, hCaSR (Calcium sensing receptor) in stably transfected HEK293 cells (Homo sapiens, UniProt P41180)
T1 construct: expressed in transfected cells; host or cells: HEK293 (stably transfected)
T1 sequence (P41180 20-1078): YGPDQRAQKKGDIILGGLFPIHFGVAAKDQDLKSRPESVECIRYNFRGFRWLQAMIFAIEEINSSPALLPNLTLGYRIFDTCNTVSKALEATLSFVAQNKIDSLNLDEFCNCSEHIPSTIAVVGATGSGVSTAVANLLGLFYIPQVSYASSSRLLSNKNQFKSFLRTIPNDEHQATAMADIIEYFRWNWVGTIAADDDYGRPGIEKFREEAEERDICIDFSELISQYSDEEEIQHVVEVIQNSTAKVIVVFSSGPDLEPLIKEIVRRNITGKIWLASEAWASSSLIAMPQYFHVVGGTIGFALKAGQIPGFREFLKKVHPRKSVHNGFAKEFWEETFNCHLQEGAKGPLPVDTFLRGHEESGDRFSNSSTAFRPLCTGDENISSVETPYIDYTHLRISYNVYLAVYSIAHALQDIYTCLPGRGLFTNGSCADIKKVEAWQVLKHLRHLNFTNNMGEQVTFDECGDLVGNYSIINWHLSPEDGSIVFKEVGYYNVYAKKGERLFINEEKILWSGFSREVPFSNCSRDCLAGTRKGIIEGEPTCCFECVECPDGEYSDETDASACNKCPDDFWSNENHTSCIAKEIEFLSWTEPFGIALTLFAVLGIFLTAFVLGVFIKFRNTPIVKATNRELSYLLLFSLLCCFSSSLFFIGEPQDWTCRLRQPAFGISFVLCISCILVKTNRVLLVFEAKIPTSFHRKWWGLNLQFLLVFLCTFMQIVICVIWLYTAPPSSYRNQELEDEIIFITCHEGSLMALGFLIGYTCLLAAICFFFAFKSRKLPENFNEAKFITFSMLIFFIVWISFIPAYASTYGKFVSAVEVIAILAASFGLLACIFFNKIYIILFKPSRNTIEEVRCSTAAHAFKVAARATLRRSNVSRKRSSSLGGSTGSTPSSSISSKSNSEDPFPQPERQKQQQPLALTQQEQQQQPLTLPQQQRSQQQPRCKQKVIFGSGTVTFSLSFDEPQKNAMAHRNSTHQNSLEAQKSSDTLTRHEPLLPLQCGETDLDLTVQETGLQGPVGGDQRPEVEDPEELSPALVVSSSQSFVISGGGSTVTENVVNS
Assay: In-vitro assay of calcimimetics through modulation of calcium sensing receptor (CaSR): increase in intracellular calcium, FLIPR
Assay type: cell-based
Conditions: HEK293 cells expressing hCaSR; intracellular calcium (Fluo4NW, FLIPR); 0.3 mM CaCl2; 8-point assay; read-out: EC50 in range
Procedure: In-Vitro Assay Method of Calcimemtics Through Modulation of Calcium Sensing Receptor (CaSR):
The ability of the compounds to modulate Calcium sensing receptor is determined by measuring an increase in intracellular calcium [Ca^2+i]. Stably transfected HEK293 cells expressing hCaSR_pTriEx-3 hygro vector are developed. Cells are grown overnight on a 96-well plate to 80% confluency in Ham's F12 containing 20% FBS at 37° C., 5% CO2 Subsequently, cells are washed extensively with 20 mM HEPES buffer containing 126 mM NaCl2, 1 mM MgCl2 and 4 mM KCl2 to remove serum components that might interfere with the assay. Cells are loaded with calcium sensing Fluo4NW dye in HEPES base buffer containing 0.1% BSA and 1 mg/ml glucose for 30 minutes to measure changes in intracellular calcium. The activities of the compounds are measured in FLIPR using 0.3 mM CaCl2 in 20 mM HEPES base buffer. The effectiveness of the compound to modulate receptor activity is determined by calculating the EC50 responses for that compound in an 8-point assay and plotted using GraphPad Prism 5.
The compounds prepared were tested using the above assay procedure and the results obtained are given below.

| pEC50 | SMILES |
| --- | --- |
| 6.70 to 7.30 | Cc1cc(N2CCOC(CCN[C@H](C)c3cccc4ccccc34)C2)ccc1C(=O)O (single isomer, unassigned) [Example 104a] |
| 7.30 to 7.70 | COc1cccc([C@@H](C)NCC2CN(c3ccc(OC)c(F)c3)C(=O)CO2)c1 (stereo partly drawn) [Example-50, 4-(3-Fluoro-4-methoxyphenyl)-6-((((R)-1-(3-methoxyphenyl)ethyl)amino)methyl)morpholin-3-one] |
| > 7.70 | C[C@@H](NCC1CN(CC2CC2)C(=O)CO1)c1cccc2ccccc12 (single isomer, unassigned) [Example 97a, hydrochloride] |
| 7.30 to 7.70 | C[C@@H](NCC1CN(c2ccc(C(F)(F)F)cc2)CCO1)c1cccc2ccccc12 (single isomer, unassigned) [33b] |
| > 7.70 | C[C@@H](NCC1CN(Cc2cc(F)ccc2F)C(=O)CO1)c1cccc2ccccc12 (single isomer, unassigned) [Example 72a, hydrochloride] |
| 6.70 to 7.30 | COc1cccc([C@@H](C)NCC2COCCN2c2ccc(F)c(F)c2)c1 (stereo partly shown) [compound 12] |
| 7.30 to 7.70 | C[C@@H](NCC1CN(c2cccc(F)c2)CCO1)c1cccc2ccccc12 (stereo partly drawn) [Example-3, (1R)-N-((4-(3-Fluorophenyl)morpholin-2-yl)methyl)-1-(naphthalen-1-yl)ethanamine hydrochloride] |
| 7.30 to 7.70 | C[C@@H](NCCC1CN(c2ccc(C(F)(F)F)cc2)CCO1)c1cccc2ccccc12 (stereo partly drawn) [Example 105, (1R)-1-(Naphthalen-1-yl)-N-(2-(4-(4-(trifluoromethyl)phenyl)morpholin-2-yl)ethyl)ethanamine] |
| 7.30 to 7.70 | C[C@@H](NCC1COCCN1c1ccc(F)cc1)c1cccc2ccccc12 (stereo partly shown) [compound 17] |
| 6.70 to 7.30 | COc1cc([C@@H](C)NCC2CN(C3CCCC3)C(=O)CO2)ccc1F (stereo partly drawn) [Example 96, 4-Cyclopentyl-6-((((R)-1-(4-fluoro-3-methoxyphenyl)ethyl)amino)methyl)morpholin-3-one hydrochloride] |
| > 7.70 | C[C@@H](NCC1CN(C2CCCC2)C(=O)CO1)c1cccc2ccccc12 (stereo partly drawn) [Example 76, 4-Cyclopentyl-6-((((R)-1-(naphthalen-1-yl)ethyl)amino)methyl)morpholin-3-one hydrochloride] |
| 6.70 to 7.30 | COc1cccc(N2CCOCC2CN[C@H](C)c2cccc3ccccc23)c1 (single isomer, unassigned) [5a] |
| 6.70 to 7.30 | CC(C)N1CC(CN[C@H](C)c2cccc3ccccc23)OCC1=O (single isomer, unassigned) [Example 93b, hydrochloride] |
| > 7.70 | COc1ccc(N2CC(CN[C@H](C)c3cccc4ccccc34)OCC2=O)cc1F (stereo partly drawn) [compound 61, 4-(3-Fluoro-4-methoxyphenyl)-6-((((R)-1-(naphthalen-1-yl)ethyl)amino)methyl)morpholin-3-one hydrochloride] |
| > 7.70 | C[C@@H](NCC1CN(c2ccc(F)c(F)c2)C(=O)CO1)c1cccc2ccccc12 (single isomer, unassigned) [62a, hydrochloride] |
| > 7.70 | COc1cccc(N2CCOC(CN[C@H](C)c3cccc4ccccc34)C2)c1 (single isomer, unassigned) [25a] |
| 7.30 to 7.70 | COc1cccc(N2CCOC(CN[C@H](C)c3cccc4ccccc34)C2)c1 (single isomer, unassigned) [25b] |
| 7.30 to 7.70 | COc1cccc([C@@H](C)NCC2COCCN2c2cccc(C(F)(F)F)c2)c1 (single isomer, unassigned) [4a] |
| 7.30 to 7.70 | COc1cccc([C@@H](C)NCC2COCCN2c2cccc(F)c2)c1 (stereo partly shown) [compound 15] |
